In patent US11078166B2, “Triazole conjugated ureas, thioureas, carbamates, and reversed carbamates for PSMA-targeted imaging agents and uses thereof” (THE JOHNS HOPKINS UNIVERSITY, priority 2015, dated 2021):
Entries after “also recorded” stand apart in the source; their conditions may differ. Where two headings read alike, the source gives them in different places.

Assays:
PSMA [1] = molecular target: T1, PSMA (Homo sapiens, UniProt Q04609); conditions: from Chen et al. 2008 and 2011; read-out: Ki value, PSMA (for comparison); cited from earlier work
T1 construct: endogenous in cells; host or cells: LNCaP cell lysate
T1 sequence (Q04609 whole entry): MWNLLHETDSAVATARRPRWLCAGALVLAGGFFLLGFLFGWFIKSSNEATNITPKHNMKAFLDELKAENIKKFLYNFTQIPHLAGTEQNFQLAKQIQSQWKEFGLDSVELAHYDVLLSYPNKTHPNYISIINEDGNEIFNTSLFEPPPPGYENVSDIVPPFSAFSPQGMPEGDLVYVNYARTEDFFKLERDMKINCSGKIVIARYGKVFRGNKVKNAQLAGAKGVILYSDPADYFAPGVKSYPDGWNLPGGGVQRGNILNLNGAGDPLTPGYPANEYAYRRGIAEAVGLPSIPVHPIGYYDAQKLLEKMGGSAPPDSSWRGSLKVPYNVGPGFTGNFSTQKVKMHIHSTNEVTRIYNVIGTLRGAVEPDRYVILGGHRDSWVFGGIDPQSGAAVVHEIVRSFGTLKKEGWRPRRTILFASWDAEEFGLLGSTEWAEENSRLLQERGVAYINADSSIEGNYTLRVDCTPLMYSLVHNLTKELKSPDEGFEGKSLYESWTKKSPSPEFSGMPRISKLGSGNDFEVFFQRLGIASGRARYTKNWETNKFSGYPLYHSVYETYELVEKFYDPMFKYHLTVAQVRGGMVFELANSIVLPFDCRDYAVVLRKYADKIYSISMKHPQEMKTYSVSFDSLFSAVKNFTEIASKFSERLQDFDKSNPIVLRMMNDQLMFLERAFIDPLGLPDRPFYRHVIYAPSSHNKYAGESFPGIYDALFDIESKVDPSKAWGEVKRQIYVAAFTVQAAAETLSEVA

PSMA [2] = molecular target: T1, PSMA; experiment: NAALADase assay (fluorescence-based Amplex Red glutamic acid assay), PSMA inhibition; assay type: biochemical; conditions: for Ki: LNCaP cell lysates, 4 μM NAAG, Cheng-Prusoff conversion
Description: NAALADase Assay (Kozikowski et al., J. Med. Chem. 2004). The binding affinities of compounds YC-88, YC-71 and YC-XY-01 were tested with an established protocol. Briefly, cell lysates of Lymph Node Carcinoma of the Prostate (LNCaP) cell extracts (25 μL) were incubated with the inhibitor (12.5 μL) in the presence of 4 μM N-acetylaspartylglutamate (NAAG) (12.5 μL) at 37° C. for 120 min. The amount of the glutamate released by NAAG hydrolysis was measured by incubating with a working solution (50 μL) of the Amplex Red Glutamic Acid Kit (Life Technologies, Grand Island, N.Y.) at 37° C. for 60 min. Fluorescence was measured with a VICTOR^3V multilabel plate reader (Perkin Elmer Inc., Waltham, Mass.) with excitation at 490 nm and emission at 642 nm. Inhibition curves were determined using semi-log plots and IC50 values were determined at the concentration at which enzyme activity was inhibited by 50%. Assays were performed in triplicate with the entire inhibition study being repeated at least once to confirm affinity and mode of inhibition. Enzyme inhibitory constants (Ki values) were generated using the Cheng-Prusoff conversion. […]. Data analysis was performed using GraphPad Prism version 4.00 for Windows (GraphPad Software, San Diego, Calif.).
PSMA Inhibition Assay. The PSMA binding affinity of YC-88 were determined using a modification of the Amplex Red glutamic acid assay (Chen et al., Biochem. Biophys. Res. Commun. 2009).

[3] = Lipophilicity, octanol-water partition coefficient by shake-flask method; assay type: physicochemical; conditions: pH 7.4
Description: Lipophilicity Determination. Octanol-water partition coefficients [log P (pH 7.4) values] were determined according to a literature procedure (Banerjee et al., J. Med. Chem. 2010). […] After vigorously shaking the mixture, it was centrifuged at 3,000 rpm for 5 min. Aliquots were removed from the two phases, and the radioactivity was measured in a 1282 Compugamma CS γ-counter, (LKB, Wallac, Turku, Finland).
Lipophilicity. Octanol-water partition coefficient (log P) values were measured by the shake-flask method using 1-octanol and PBS (pH 7.4). The log P of [^18F]YC-88 at pH 7.4 was −3.91.

[4] = Radiation dosimetry: kidney biological clearance half-life and AUC from % ID/g data; assay type: in vivo, NOD-SCID mice; conditions: for AUC in kidneys / Biological half-life in kidneys: single exponential fit of kidney % ID/g
Text: Radiation Dosimetry. […] The simulation analysis and modeling software package SAAM II (The Epsilon Group, Charlottesville, Va.) was used to perform the fits.

In the case of `O=C(O)CC[C@H](NC(=O)N[C@@H](CSCc1ccc(F)cc1)C(=O)O)C(=O)O` [DCFBC], the Ki (PSMA [1]) is listed as 0.44 nM.

In the case of `O=C(O)CCC(NC(=O)NC(CCCCNC(=O)c1ccc(F)cc1)C(=O)O)C(=O)O` (stereo not shown) [DCFBzL], the Ki (PSMA [1]) is given as 0.19 nM.

In the case of `O=C(O)CCC(NC(=O)NC(CCCCNC(=O)CCCCCCC(=O)NC(CCCCNC(=O)CCc1cn(CCF)nn1)C(=O)O)C(=O)O)C(=O)O` (stereo not shown) [YC-71], the “Binding affinity to PSMA (in words)” value (PSMA [2]) is reported as “high binding affinity to PSMA” and the Ki (PSMA [2]) is reported as 0.6 nM.

With `O=C(O)CCC(NC(=O)NC(CCCCNC(=O)CCc1cn(CCF)nn1)C(=O)O)C(=O)O` (stereo not shown) [YC-88, 2-[3-(1-Carboxy-5-{3-[1-(2-fluoroethyl)-1H-1,2,3-triazol-yl]propanamido}pentyl)ureido]pentanedioic Acid] the “Binding affinity to PSMA (in words)” value (PSMA [2]) was “high affinity for PSMA; also recorded: high binding affinity to PSMA” and the Ki (PSMA [2]) was 12.9 nM.

For `O=C(O)CC[C@H](OC(=O)N[C@@H](CCCCNC(=O)CCc1cn(CCF)nn1)C(=O)O)C(=O)O` [YC-XY-01, (S)-2-((((S)-1-carboxy-5-(3-(1-(2-fluoroethyl)-1H-1,2,3-triazol-4-yl)propanamido)pentyl)carbamoyl)oxy)pentanedioic acid], the “Binding affinity to PSMA (in words)” value (PSMA [2]) was “high binding affinity to PSMA” and the Ki (PSMA [2]) was 473 nM.

For `O=C(O)CCC(NC(=O)NC(CCCCNC(=O)c1ccc([18F])nc1)C(=O)O)C(=O)O` (stereo not shown) [[^18F]DCFPyL, 2-(3-{1-carboxy-5-[(6-[^18F]fluoropyridine-3-carbonyl)-amino]-pentyl}-ureido)-pentanedioic acid, reference compound], the “log P (octanol-water partition coefficient)” value ([3]; 1-octanol and PBS) was −3.27, the AUC in kidneys [4] was 340.74 % ID/g-h and the “Biological half-life in kidneys” value [4] was 1.20 h.

In the case of `O=C(O)CC[C@H](NC(=O)N[C@@H](CCCCNC(=O)CCc1cn(CC[18F])nn1)C(=O)O)C(=O)O` [[^18F]YC-88, 2-[3-(1-carboxy-5-{3-[1-(2-[^18F]fluoroethyl)-1H-1,2,3-triazol-yl]propanamido}pentyl)ureido]-pentanedioic acid], the logP [3] is reported as -3.91, the “AUC ratio (agent/YC-88) in kidneys” value ([4]; mouse, in vivo) is reported as 1 and the “Kidney absorbed dose, decrease compared to [^18F]DCFPyL” value ([4]; mouse, in vivo) is reported as about 5 fold. The AUC in kidneys [4] was 70.7 % ID/g-h and the “Biological half-life in kidneys” value [4] was 1.52 h.
